Laboratory results: PubChem BioAssay AID248 (DTP/NCI, 2004)
Several values for one entry are separate records, joined by “and”; a condition that tells them apart may be missing. Equal values may be shown once. Toxic doses and inconclusive results are not listed. No stated cut-off is given here; in the data, active means T/C of 150% or more; inactive means T/C below 125%.

Test system: L1210 leukemia ip in BDF1 mice, survival T/C
Test: NCI In Vivo Anticancer Drug Screen. Data for tumor model L1210 Leukemia (intraperitoneal) in B6D2F1 (BDF1) mice
Conditions: endpoint: mean survival time, higher = longer survival
Summary of the method: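 Antitumor effect is assessed in tumor-bearing animals. Survival in the compound arm is compared with a vehicle-dosed control arm and expressed as their quotient.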

[1] = dose: 100.0 mg/kg/injection, schedule: Q01DX001 (ip), vehicle: saline
[2] = dose: 200.0 mg/kg/injection, schedule: Q01DX001 (ip), vehicle: saline
[3] = dose: 400.0 mg/kg/injection, schedule: Q01DX001 (ip), vehicle: saline
[4] = dose: 100.0 mg/kg/injection, schedule: Q04DX003 (ip), vehicle: saline
[5] = dose: 200.0 mg/kg/injection, schedule: Q04DX003 (ip), vehicle: saline
[6] = dose: 400.0 mg/kg/injection, schedule: Q04DX003 (ip), vehicle: saline
[7] = dose: 100.0 mg/kg/injection, schedule: Q04DX002 (ip), vehicle: saline with Tween-80

Measured: T/C

COc1cc(-c2ccc(Nc3ccccc3C(=O)O)c(OC)c2)ccc1Nc1ccccc1C(=O)O
inactive: dose: 6.0 mg/kg/injection, schedule: Q01DX006 (iv), vehicle: carboxymethylcellulose (CMC) 111 % of control | dose: 12.0 mg/kg/injection, schedule: Q01DX006 (iv), vehicle: carboxymethylcellulose (CMC) 106 % of control | dose: 13.0 mg/kg/injection, schedule: Q01DX Z (ip), vehicle: saline 122 % of control | dose: 20.0 mg/kg/injection, schedule: Q01DX Z (ip), vehicle: saline 114 % of control | dose: 25.0 mg/kg/injection, schedule: Q01DX006 (iv), vehicle: carboxymethylcellulose (CMC) 107 % of control | dose: 25.0 mg/kg/injection, schedule: Q01DX Z (ip), vehicle: carboxymethylcellulose (CMC) 103 % of control | dose: 29.0 mg/kg/injection, schedule: Q01DX Z (ip), vehicle: saline 116 % of control | dose: 37.5 mg/kg/injection, schedule: Q01DX006 (iv), vehicle: carboxymethylcellulose (CMC) 108 % of control | dose: 44.0 mg/kg/injection, schedule: Q01DX Z (ip), vehicle: carboxymethylcellulose (CMC) 104 % of control and 112 % of control | dose: 44.0 mg/kg/injection, schedule: Q01DX Z (ip), vehicle: methylcellulose (MC) 100 % of control | dose: 44.0 mg/kg/injection, schedule: Q01DX Z (ip), vehicle: saline 117 % of control and 122 % of control | dose: 45.0 mg/kg/injection, schedule: Q01DX Z (ip), vehicle: carboxymethylcellulose (CMC) 104 % of control | dose: 50.0 mg/kg/injection, schedule: Q01DX006 (iv), vehicle: carboxymethylcellulose (CMC) 106 % of control | dose: 50.0 mg/kg/injection, schedule: Q01DX015 (ip), vehicle: saline 98 % of control | dose: 50.0 mg/kg/injection, schedule: Q01DX Z (ip), vehicle: carboxymethylcellulose (CMC) 97 % of control and 101 % of control | dose: 64.0 mg/kg/injection, schedule: Q01DX Z (ip), vehicle: carboxymethylcellulose (CMC) 102 % of control | dose: 66.0 mg/kg/injection, schedule: Q01DX Z (ip), vehicle: carboxymethylcellulose (CMC) 110 % of control | dose: 66.0 mg/kg/injection, schedule: Q01DX Z (ip), vehicle: methylcellulose (MC) 105 % of control | dose: 66.0 mg/kg/injection, schedule: Q01DX Z (ip), vehicle: saline 109 % of control and 114 % of control | dose: 98.0 mg/kg/injection, schedule: Q01DX Z (ip), vehicle: methylcellulose (MC) 98 % of control | dose: 98.0 mg/kg/injection, schedule: Q01DX Z (ip), vehicle: saline 97 % of control | dose: 99.0 mg/kg/injection, schedule: Q01DX Z (ip), vehicle: carboxymethylcellulose (CMC) 100 % of control | dose: 100.0 mg/kg/injection, schedule: Q01DX015 (ip), vehicle: saline 96 % of control | dose: 100.0 mg/kg/injection, schedule: Q01DX Z (ip), vehicle: saline 119 % of control | dose: 147.0 mg/kg/injection, schedule: Q01DX Z (ip), vehicle: methylcellulose (MC) 110 % of control | dose: 147.0 mg/kg/injection, schedule: Q01DX Z (ip), vehicle: saline 100 % of control | dose: 150.0 mg/kg/injection, schedule: Q01DX Z (ip), vehicle: carboxymethylcellulose (CMC) 95 % of control | dose: 200.0 mg/kg/injection, schedule: Q01DX015 (ip), vehicle: saline 101 % of control | dose: 200.0 mg/kg/injection, schedule: Q01DX Z (ip), vehicle: carboxymethylcellulose (CMC) 103 % of control and 106 % of control | dose: 200.0 mg/kg/injection, schedule: Q01DX Z (oral), vehicle: carboxymethylcellulose (CMC) 103 % of control | dose: 220.0 mg/kg/injection, schedule: Q01DX Z (ip), vehicle: methylcellulose (MC) 98 % of control | dose: 220.0 mg/kg/injection, schedule: Q01DX Z (ip), vehicle: saline 108 % of control | dose: 334.0 mg/kg/injection, schedule: Q01DX Z (ip), vehicle: saline 120 % of control | dose: 400.0 mg/kg/injection, schedule: Q01DX015 (ip), vehicle: saline 96 % of control | dose: 400.0 mg/kg/injection, schedule: Q01DX Z (oral), vehicle: carboxymethylcellulose (CMC) 103 % of control | dose: 800.0 mg/kg/injection, schedule: Q01DX Z (oral), vehicle: carboxymethylcellulose (CMC) 95 % of control | dose: 1600.0 mg/kg/injection, schedule: Q01DX Z (oral), vehicle: carboxymethylcellulose (CMC) 111 % of control

Nc1ncnc2c1ncn2C1C=CC(CO)O1 (stereo not drawn)
inactive: [1] 102 % of control | [2] 100 % of control | [3] 102 % of control

CC(=O)OC1OC(COC(=O)c2ccc([N+](=O)[O-])cc2)C(NC(=O)C(F)(F)F)C1OC(C)=O (stereo not drawn)
inactive: [4] 90 % of control | [5] 96 % of control | [6] 95 % of control

OCn1c(O)c2ccccc2c1N=Nc1ccccc1
inactive: [1] 95 % of control | [2] 95 % of control | [3] 95 % of control

CC(C)C1CC(C)(C)c2cc(O)ccc2O1 (stereo not drawn)
inactive: dose: 100.0 mg/kg/injection, schedule: Q04DX003 (ip), vehicle: Klucel (hydroxypropylcellulose) (HPC) 101 % of control | dose: 200.0 mg/kg/injection, schedule: Q04DX003 (ip), vehicle: Klucel (hydroxypropylcellulose) (HPC) 105 % of control | dose: 400.0 mg/kg/injection, schedule: Q04DX003 (ip), vehicle: Klucel (hydroxypropylcellulose) (HPC) 100 % of control

CCCCCCCCCCCCCCCCCC[Se]CCCCCCCCCCCCCCCCCC
inactive: dose: 100.0 mg/kg/injection, schedule: Q04DX003 (ip), vehicle: saline with Tween-80 88 % of control | dose: 200.0 mg/kg/injection, schedule: Q04DX003 (ip), vehicle: saline with Tween-80 92 % of control | dose: 400.0 mg/kg/injection, schedule: Q04DX003 (ip), vehicle: saline with Tween-80 93 % of control

CCCCS(=O)(=O)N1CCCC1
inactive: [7] 101 % of control | dose: 200.0 mg/kg/injection, schedule: Q04DX002 (ip), vehicle: saline with Tween-80 101 % of control | dose: 400.0 mg/kg/injection, schedule: Q04DX002 (ip), vehicle: saline with Tween-80 101 % of control

O=C(O)c1ccc2c(c1Nc1ccccc1)C(=O)c1ccccc1C2=O
inactive: dose: 100.0 mg/kg/injection, schedule: Q01DX009 (ip), vehicle: saline 106 % of control | dose: 200.0 mg/kg/injection, schedule: Q01DX009 (ip), vehicle: saline 94 % of control | dose: 400.0 mg/kg/injection, schedule: Q01DX009 (ip), vehicle: saline 94 % of control

C(=N\Nc1nc2ccccc2s1)/c1ccnc2ccccc12
inactive: dose: 100.0 mg/kg/injection, schedule: Q01DX009 (ip), vehicle: Klucel (hydroxypropylcellulose) (HPC) 102 % of control | dose: 200.0 mg/kg/injection, schedule: Q01DX009 (ip), vehicle: Klucel (hydroxypropylcellulose) (HPC) 101 % of control | dose: 400.0 mg/kg/injection, schedule: Q01DX009 (ip), vehicle: Klucel (hydroxypropylcellulose) (HPC) 96 % of control

[N-]=[N+]=Nc1ccc(C(=O)NCc2cnc(N)nc2N)cc1
inactive: [7] 98 % of control

O=C(COc1ccccc1)NCCc1ccccc1
inactive: dose: 100.0 mg/kg/injection, schedule: Q04DX003 (ip), vehicle: gum acacia 97 % of control | dose: 200.0 mg/kg/injection, schedule: Q04DX003 (ip), vehicle: gum acacia 108 % of control | dose: 400.0 mg/kg/injection, schedule: Q04DX003 (ip), vehicle: gum acacia 95 % of control

COC1=CC(=O)C=CC1=O
inactive: dose: 1.5 mg/kg/injection, schedule: Q01DX009 (ip), vehicle: saline 90 % of control | dose: 3.0 mg/kg/injection, schedule: Q01DX009 (ip), vehicle: saline 88 % of control | dose: 6.0 mg/kg/injection, schedule: Q01DX009 (ip), vehicle: saline 90 % of control

OCCCCCCCCCCCO
inactive: [4] 100 % of control | [5] 93 % of control | [6] 93 % of control

Cc1cc(C)[n+](C)c(C)c1
inactive: dose: 12.5 mg/kg/injection, schedule: Q04DX003 (ip), vehicle: saline 96 % of control | dose: 25.0 mg/kg/injection, schedule: Q04DX003 (ip), vehicle: saline 93 % of control | dose: 50.0 mg/kg/injection, schedule: Q04DX003 (ip), vehicle: saline 101 % of control | [4] 93 % of control

Nc1c(N=Nc2cccc([N+](=O)[O-])c2)c(S(=O)(=O)O)cc2cc(S(=O)(=O)O)c(N=Nc3ccc(-c4ccc(N=Nc5cc(S(=O)(=O)O)c6ccccc6c5O)cc4)cc3)c(O)c12
inactive: dose: 50.0 mg/kg/injection, schedule: Q01DX010 (ip), vehicle: saline 94 % of control | dose: 100.0 mg/kg/injection, schedule: Q01DX010 (ip), vehicle: saline 100 % of control | dose: 200.0 mg/kg/injection, schedule: Q01DX010 (ip), vehicle: saline 92 % of control
